From publication PMC5607274, “An iterative compound screening contest method for identifying target protein inhibitors using the tyrosine-protein kinase Yes” (Scientific Reports, 2017)

Biological target: T1, human recombinant Yes [a.a. 2–543 (end)] (Homo sapiens, UniProt P07947)
T1 construct: human recombinant Yes [a.a; 2–543 (end)]; purchased BPS Bioscience 40488
Experiment: ADP-Glo kinase assay, inhibition rates of Yes phosphorylation activity (first and second screening)
Type: biochemical
Settings: first screening; mean of n = 4 wells; 10 μmol L−1 compound
Procedure, shortened: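 Hits from a first pass were rescreened after re-dissolution from fresh powder. The first pass reported the mean inhibition rate of quadruplicate wells per compound. Activity was that of recombinant human Yes [a.a. 2–543] kinase, read out with the ADP-Glo ADP-detection method.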

T1 sequence (P07947 2-543): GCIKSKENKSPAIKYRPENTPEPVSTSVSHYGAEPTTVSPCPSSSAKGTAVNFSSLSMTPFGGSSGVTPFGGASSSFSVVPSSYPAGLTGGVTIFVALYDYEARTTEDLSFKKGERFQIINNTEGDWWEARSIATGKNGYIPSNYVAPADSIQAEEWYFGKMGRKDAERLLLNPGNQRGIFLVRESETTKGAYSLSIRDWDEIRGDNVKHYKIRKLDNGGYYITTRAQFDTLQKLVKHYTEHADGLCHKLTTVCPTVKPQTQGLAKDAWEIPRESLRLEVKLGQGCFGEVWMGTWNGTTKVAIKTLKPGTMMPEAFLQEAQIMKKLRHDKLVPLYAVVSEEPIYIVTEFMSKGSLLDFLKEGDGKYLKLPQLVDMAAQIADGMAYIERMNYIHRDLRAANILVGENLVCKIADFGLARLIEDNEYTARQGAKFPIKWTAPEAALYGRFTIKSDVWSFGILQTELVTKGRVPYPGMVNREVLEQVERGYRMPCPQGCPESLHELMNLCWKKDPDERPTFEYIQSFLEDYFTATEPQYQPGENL

Structure (SMILES)	First screening IR (inhibition rate) [%]
CC(C)n1ncc2c(C(=O)N3CCN(c4ccc(F)cc4)CC3)cc(-c3ccccc3)nc21 [Compound Z52005969]	27
COc1cc(NC(=O)c2cc(-c3ccccc3)nc3c2cnn3C(C)C)cc(OC)c1 [Compound Z52023681]	-11
Cc1nc(-c2cccc(NC(=O)CC(NC(N)=O)c3ccc(Cl)cc3)c2)cs1 (stereo not drawn) [Compound Z52058293]	-6
O=S(=O)(c1cccc(Cl)c1Cl)N1CCN(Cc2nc(-c3ccc(F)cc3)no2)CC1 [Compound Z52670207]	-5
CN(CC(=O)N1N=C(c2ccco2)CC1c1cccs1)Cc1nc2ccccc2c(=O)[nH]1 (stereo not drawn) [Compound Z52671252]	-3
CN(CC(=O)NC(=O)Nc1ccccc1F)C1CCCc2ccccc21 (stereo not drawn) [Compound Z52744280]	-6
CCn1c(-c2ccccc2)c(C(=O)CSc2nnc(-c3cccnc3)n2N)c2ccccc21 [Compound Z54072868]	-13
CC(OC(=O)c1ccc(-c2ccc(O)cc2)cc1)C(=O)c1ccc(F)c(F)c1 (stereo not drawn) [Compound Z54379277]	27
CN1CCc2nc(NC(=O)CCC(=O)c3ccccc3)sc2C1 [Compound Z54410536]	-2
COC(=O)c1ccc2c(=O)[nH]c(COC(=O)Cc3ccsc3)nc2c1 [Compound Z54469331]	2
CN1/C(=C\C(=O)CN2C(=O)NC3(CCCc4sccc43)C2=O)C(C)(C)c2ccccc21 (stereo not drawn) [Compound Z54813762]	-20
Cc1ccc(-c2nn3c(=O)c4c5c(sc4nc3c3ccccc23)CCCC5)cc1 [Compound Z55163996]	4
Cc1ccc(-c2nn3c(=O)c4c(C)c(C)sc4nc3c3ccccc23)cc1 [Compound Z55164044]	-6
Cc1ccc(-c2nn3c(=O)c4c(-c5cccs5)csc4nc3c3ccccc23)cc1 [Compound Z55164116]	24
Cc1nn(CCc2nc(-c3ccco3)cs2)c2nc(-c3cccs3)cc(C(F)(F)F)c12 [Compound Z55404718]	38
Cc1nn(-c2ccccc2)c2nc(-c3ccccc3)cc(C(F)(F)F)c12 [Compound Z55426459]	-6
Cc1nn(CCC#N)c2nc(-c3cccnc3)cc(C(F)(F)F)c12 [Compound Z55426831]	-2
Cc1nn(CCC#N)c2nc(-c3ccccc3)cc(C(F)(F)F)c12 [Compound Z55426833]	-11
CC1=Nc2nc(N3CCCCC3)c(C#N)c3c4c(nc(c23)N1)N(c1ccc(C)cc1)C(=O)C4 [Compound Z55516559]	-13
Cc1ccc(N2C(=O)Cc3c2nc(N)c2c(N)nc(N4CCCC4)c(C#N)c32)cc1C [Compound Z55589600]	15
CC(C)c1ccc(N2C(=O)Cc3c2nc(N)c2c(N)nc(N4CCCC4)c(C#N)c32)cc1 [Compound Z55589601]	6
O=C(O)c1ccc2nc3c(nc2c1)-c1cccc2cccc-3c12 [Compound Z55723243]	15
Cc1ccc(-c2cc(C(=O)O)c3c(C)nn(-c4ccc(C)cc4C)c3n2)cc1 [Compound Z55871149]	40
Cc1nn(CCC#N)c2nc(-c3ccc(Br)cc3)cc(C(F)(F)F)c12 [Compound Z55874673]	-4

Structure (SMILES)	First screening IR (inhibition rate) [%]
Cc1nn(CCc2nn[nH]n2)c2nc(-c3ccccc3)cc(C(F)(F)F)c12 [Compound Z55874741]	1
Cc1ccc(S(=O)(=O)NC(=O)c2cc(C)n(CCCn3ccnc3)c2C)cc1 [Compound Z55892329]	-11
Cc1cc(C)c(C)c(S(=O)(=O)Nc2ccccc2C(=O)N2CCN(c3cccc(C(F)(F)F)c3)CC2)c1C [Compound Z56576419]	21
CCc1cccc(OCC(=O)C(C#N)c2nc3ccccc3[nH]2)c1 (stereo not drawn) [Compound Z56595958]	2
CCOC(=O)c1cc(-c2ccc(C#N)cc2)nc2c1c(C)nn2CCC#N [Compound Z56631499]	-7
CCOC(=O)c1cc(-c2ccc3c(c2)OCCO3)nc2c1c(C)nn2CCC#N [Compound Z56631515]	17
CC(C)n1ncc2c(C(=O)O)cc(-c3ccccc3F)nc21 [Compound Z56643534]	-8
COc1ccc(-c2cc(C(=O)O)c3cnn(C(C)C)c3n2)cc1OC [Compound Z56643618]	9
CC(C)n1ncc2c(C(=O)O)cc(-c3ccc4c(c3)OCCO4)nc21 [Compound Z56643642]	2
Cc1ccccc1-c1cc(C(=O)O)c2cnn(C(C)C)c2n1 [Compound Z56643722]	8
CC(C)c1noc2nc(-c3ccncc3)cc(C(=O)O)c12 [Compound Z56646434]	-2
CCn1ncc2c(C(=O)O)cc(-c3ccccc3)nc21 [Compound Z56648330]	-43
CS(=O)(=O)NS(=O)(=O)CCCCCl [Compound Z56755807]	-15
CCCCS(=O)(=O)C1CCS(=O)(=O)C1 (stereo not drawn) [Compound Z56757812]	-9
Cc1ccc(S(=O)(=O)C2CS(=O)(=O)CC2O)cc1 (stereo not drawn) [Compound Z56757815]	-3
O=S1(=O)CC(S(=O)(=O)c2ccccc2)C(S(=O)(=O)c2ccccc2)C1 (stereo not drawn) [Compound Z56757817]	15
O=C(O)/C=C/c1cccc(NS(=O)(=O)/C=C/c2ccccc2)c1 [Compound Z56757962]	1
CS(=O)(=O)C1(S(C)(=O)=O)CCCCC1 [Compound Z56758188]	14
O=S(=O)(c1ccc(Cl)cc1)C1(S(=O)(=O)c2ccc(Cl)cc2)CCCC1 [Compound Z56759577]	-18
N#CC(C#N)=CC1=C2OC(c3ccccc3)=CC(c3ccccc3)=C2CCC1 [Compound Z56760799]	14
Cc1cc(-c2ccccc2)cc2c3ccccc3c3ccccc3[n+]12.[O-][Cl+3]([O-])([O-])[O-] [Compound Z56761787]	4
O=S1(=O)C=CC(Br)C1 (stereo not drawn) [Compound Z56764753]	3
O=S1(=O)C=CCC1 [Compound Z56764769]	9
O=c1c2ccc3c(=O)n4c5cccc6cccc(nc4c4ccc(c2c34)c2nc3ccccc3n12)c65 [Compound Z56768422]	-6
